The target in experiment [1] is T1, bovine Folate Binding Protein (Bos taurus, UniProt P02702).
T1 construct: purchased Biochemical Inc., Englewood, Colo
The experiment is described as follows: Inhibition of ED14-Folate conjugate with folate binding protein; competition by folic acid sample, β-galactosidase complementation. Also noted: dose or concentration left out as unconfirmed. The settings on record: folate binding protein diluted approximately 1:2500. The procedure: Binding Protein Reagent consists of bovine Folate Binding Protein (Biochemical Inc., Englewood, Colo.) diluted approximately 1:2500 in 150 mM potassium phosphate, 50 mM sodium borate, 1% BSA (B12-Grade BSA, Sigma, St. Louis, Mo.), 1% Lubrol and 20 mM sodium azide, pH 7.0. ED14-Folate Conjugate/Substrate Reagent contains approximately 6.3 nM ED-Folate, 1.0 mg/ml OCNPG (o-chloro-p-nitrophenol galactopyranoside), 100 mM sodium phosphate, 150 mM potassium phosphate, 10 mM ethylene glycol tetraacetic acid, 2.5 mM dithiothreitol, 20 mM sodium azide, 0.05% Tween 20 with 0.05 mM dithiothreitol, pH 7.0. EA Reagent consists of a recombinant protein resembling the carboxyl-terminal end of β-galactosidase in 100 mM sodium phosphate, 150 mM potassium phosphate, 10 mM ethylene glycol tetraacetic acid, 5 mM magnesium acetate, 20 mM sodium azide, 0.05% Tween 20 with 0.05 mM dithiothreitol pH 7.0. EA concentration is approximately 2.2 μM. The assay procedure involves mixing of 300 μl of folic acid sample with 100 μl of binding protein reagent and incubation for 15 min at room temperature. This becomes the pretreated sample. An instrument (clinical chemistry analyzer) is programmed to deliver 30 μl of pretreated sample with 100 μl of ED-Folate reagent for 2 to 5 min at 37° C. This is followed by the addition of 220 μl of EA reagent to the reaction mixture by the instrument and the enzyme rate is read by absorbance change at […]. The following table indicates a typical assay performance.

Experiment [2] addresses T2, (Homo sapiens, UniProt P05543).
T2 construct: purchased Protus Laboratories, South San Francisco, CA
T2 sequence (P05543 21-415): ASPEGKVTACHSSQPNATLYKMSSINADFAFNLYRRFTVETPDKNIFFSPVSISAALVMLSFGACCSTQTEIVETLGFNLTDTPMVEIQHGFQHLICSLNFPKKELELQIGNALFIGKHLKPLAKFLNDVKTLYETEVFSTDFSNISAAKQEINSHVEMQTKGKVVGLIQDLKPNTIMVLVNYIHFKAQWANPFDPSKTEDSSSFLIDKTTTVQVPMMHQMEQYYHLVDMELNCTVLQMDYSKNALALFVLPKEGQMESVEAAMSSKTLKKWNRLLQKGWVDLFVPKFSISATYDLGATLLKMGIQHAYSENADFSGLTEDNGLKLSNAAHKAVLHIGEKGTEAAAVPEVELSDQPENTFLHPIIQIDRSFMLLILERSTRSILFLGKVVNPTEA
The experiment is described as follows: Inhibition of ED4-T4 conjugate by thyroxin binding globulin, β-galactosidase complementation. The settings on record: 18 nM ED4-T4; for Observed Enzyme Rate: 420 nM, 37° C. As for the experimental part:
Buffer=20 mM NaPO4 10 mM EGTA, 2 mM MgOAc, 3.6% Glycerol, 5 mM Sucrose, 20 mM NaN3, pH 7.0
Reagent=5U EA/Test or 31.25 U/ml of EA in EA Buffer
Buffer=20 mM NaPO4, 10 mM EGTA, 6.25 mg/ml ONPG, 0.05% Tween/DTT, 20 mM NaN3, pH 7.0
Reagent=18 nM ED4-T4 system concentration or 112.5 nM ED4-T4 in ED reagent buffer
Machine Program Parameters:
The receptor was purified TBG from Protus Laboratories, South San Francisco, CA diluted in PBS.

T1 sequence (P02702 20-241): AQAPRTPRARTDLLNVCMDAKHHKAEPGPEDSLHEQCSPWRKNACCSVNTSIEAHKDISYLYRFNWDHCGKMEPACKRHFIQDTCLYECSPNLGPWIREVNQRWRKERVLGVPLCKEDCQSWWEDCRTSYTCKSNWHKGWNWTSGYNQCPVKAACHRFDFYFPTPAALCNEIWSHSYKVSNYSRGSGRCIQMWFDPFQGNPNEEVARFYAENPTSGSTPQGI

Regarding `Nc1nc2ncc(CNc3ccc(C(=O)N[C@@H](CCC(=O)O)C(=O)O)cc3)nc2c(=O)[nH]1` [Folate, Folic acid], in experiment [1] (folate in sample 20), the “% Inhibition of ED14-Folate Conjugate” value is 18.8% and the “Observed Enzyme Rate” value was determined as 290. Also, in experiment [1] (folate in sample 200), the “% Inhibition of ED14-Folate Conjugate” value was determined as 0.0% and the “Observed Enzyme Rate” value turned out to be 357.

B1: TBG: purified TBG from Protus Laboratories, diluted in PBS (protein, UniProt P05543 21-415, looked up)
Thyroxine-binding globulin: T2 sequence (P05543 21-415)
With B1, in experiment [2] (TBG receptor 18.3 μg/ml), the % Inhibition (in general, the percentage by which the read-out fell short of the control) amounted to 22% and the “Observed Enzyme Rate” value is 367 mA/min. For the same molecule, in experiment [2] (TBG receptor 55.0 μg/ml), the “% Inhibition” value amounted to 68% and the “Observed Enzyme Rate” value is 154 mA/min.
